Test results published in patent US20020155172A1, “Methods and compounds for decreasing cell toxicity or death” (priority 2000, published 2002).
Peptide text beside a SMILES is read from it. * marks the point of attachment. Cbz = O=C(OCc1ccccc1)*; CH2F = FC*

Experiments:
Assay type in all cases: cell-based
[1] = system: HeLa cells transfected with Q79-GFP; test: Cellular ATP levels (ATPLite) in Q79 expressing HeLa cells; settings: Q79-GFP, assayed 48 hours after transfection
Protocol: We also investigated whether Congo red prevented other cellular events during cell death, including ATP depletion, caspase activation, and protein synthesis inhibition. HeLa cells were transfected with the Q79-GFP construct. Forty-eight hours later, the viability of cells expressing expanded polyglutamine repeats was determined by measuring cellular ATP levels, suing an ATPLite™ kit, according to the directions provided by the manufacturer (Packard, Co.) (FIG. 5A).
To determine the effect of Congo red (100 μM) on polyglutamine-induced cell toxicity. HeLa cells were transiently transfected with Q79-GFP, and six hours later were administered various concentrations of Congo red. Cell viability was assayed 72 hours after transfection, by measuring the level of ATP in each sample. ATP levels in cells expressing Q79 were determined by using the ATPLite™ kit as recommended by the manufacturer (Packard, Inc.). Briefly, cells were transfected with Q79 and treated 6 hours after transfection. Forty-two hours later, the levels of ATP were determined. (FIG. 5C).
(§1) A high-throughput method for identifying compounds that decrease cell toxicity or death has been designed. In this method, cells were seeded at 2×10^5 cells in 100 mm dishes. The next day the plated cells were transiently transfected with a plasmid encoding an expanded polyglutamine repeat, for example, Q79. Three hours later, transfection efficiency was assessed. Plates containing cells having 10-20% transfection efficiency at this 3 hour time point were trypsinized and re-plated at 600 or at 1500 cells per well in 384 well plates with clear bottoms. After 6 hours, the candidate compounds were added to the multi-well plates. The cells were cultured for 48 hours and ATP levels were determined using an ATPLite™ kit. Data was then expressed in either arbitrary units, or as relative ratio of ATP levels in Q79 transfected cells in compound-treated relative to vehicle-treated samples.
Derivatives of Congo red (commercially available from Sigma/Aldrich) were tested for their ability to alter cell toxicity and death by measuring ATP depletion and luciferase expression. The assay was carried out as described above for the high-throughput identification of compounds. Briefly, HeLa cells were transiently transfected with a Q79/GFP plasmid and were subsequently treated with various concentrations of Congo red, or 25 μM of each of Direct Orange 6, Direct Red 1, Direct Orange 1, Direct Black 51, Direct Orange 8, Direct Yellow 26, Direct Yellow 28, or Direct Blue 158. Drug treatment continued for 6 hours and then 48 hours later, ATP levels were measured in these cells and compared to the ATP levels in cells that were transiently transfected with GFP only, and also received the compound.

[2] = system: HeLa cells expressing Q79 expanded polyglutamine repeats; test: Cell death induced by TNF-α/CHX, Fas/CHX or H2O2; settings: 100 μM, one hour before the inducing agent; cell death 48 hours later
Protocol: FIG. 5F is a graph of the effects of Congo red, ZVAD, or vehicle (NT) on cell death when the cells are induced to die by receptor mediated pathways (TNF-α/cycloheximide (CHX), Fas/cycloheximide (CHX)), or necrosis (hydrogen peroxide).
HeLa cells expressing Q79 expanded polyglutamine repeats were treated with 100 μM Congo red, or 100 μM ZVAD (a positive control) for one hour prior to the addition of the apoptosis-inducing agent, and cell death was determined 48 hours later. […] Finally we tested whether Congo red can inhibit apoptosis induced by overexpression of caspase-1, -8, or -11.

[3] = system: non-transfected HeLa cells; test: Total cellular protein degradation; settings: Congo red 100 μM, ZVAD 100 μM, MG132 10 μM; H3-tyrosine release, 0 to 180 minutes
Protocol: FIG. 8C is a graph of the effect of effect of Congo red, ZVAD, or the proteosome inhibitor MG132 on total cellular protein degradation in non-transfected HeLa cells.
To rule out the possibility that Congo red may have an effect on protein degradation in general, we tested the effect of Congo red on proteosome degradation. Rates of total cellular protein degradation experiments, from cells seeded in 12 well dishes at 2×10^4, treated with Congo red (100 μM), ZVAD (100 μM), or the proteosome inhibitor MG132 (10 μM) and labeled with 5 μCi/ml of H^3-tyrosine for 1 hour. One hundred microliter culture medium aliquots were collected at 0, 30, 60, 90, 120, and 180 minute time points, and the levels of H^3-tyrosine were determined using an LS6000 scintillation counter (Beckman, Co).

[4] = system: Q79 transiently transfected HeLa cells; test: Cell protective effects by ATP depletion tests and luciferase activity analysis; settings: 5 μM or 25μM of the test compound
Protocol: as §1
The structures and ChemBridge library product numbers for the compounds that tested positively in the ATP depletion assays and luciferase assays are shown in FIGS. 14A-14L. In addition, derivatives of some of the identified compounds, as shown in FIGS. 14A-14F, were identified and tested for their cell protective effects, as assayed by ATP depletion tests and luciferase activity analysis after administration of Q79 transiently transfected HeLa cells with 5 μM or 25μM of the test compound. […]

COC(=O)C[C@H](NC(=O)[C@H](C)NC(=O)[C@@H](NC(=O)OCc1ccccc1)C(C)C)C(=O)CF [ZVAD, reference compound] (Cbz-Val-Ala-Asp(OMe)-CH2F)
ATP depletion upon expanded polyglutamine expression [1]: inhibited
cell death induced by TNF-α/CHX, Fas/CHX, or H2O2 [2]: effective in inhibiting both TNF-α- and Fas-induced apoptosis
general protein degradation [3]: neither Congo red nor ZVAD had any effect

C/C(=N\NC(=S)N1CCCCC1)c1ccccc1 [PQIB]
cell protective effect (ATP depletion tests and luciferase activity analysis) [4]: cytoprotective

CC(=O)Nc1ccc(-c2ccc(NC(C)=O)cc2)cc1 [PQIG]
cell protective effect (ATP depletion tests and luciferase activity analysis) [4]: cytoprotective
